Common to all, as to type: functional
One assay relates to Bacillus subtilis. Briefly: Antimicrobial activity against Bacillus subtilis MTCC 121 assessed as growth inhibition after 24 hr by two-fold serial dilution method. The settings on record: MTCC 121, 24 h.
Another assay concerns Aspergillus niger. Briefly: Antimicrobial activity against Aspergillus niger assessed as growth inhibition after 72-96 hr by two-fold serial dilution method.
In the next assay the test system is Klebsiella pneumoniae. Briefly: Antimicrobial activity against Klebsiella pneumoniae MTCC 2272 assessed as growth inhibition after 24 hr by two-fold serial dilution method. Conditions: MTCC 2272, 24 h.
The test system of another assay is Staphylococcus aureus. Briefly: Antimicrobial activity against Staphylococcus aureus MTCC 96 assessed as growth inhibition after 24 hr by two-fold serial dilution method.
For a further assay, the system named is Fusarium oxysporum. Kind of assay: Antimicrobial activity against Fusarium oxysporum assessed as growth inhibition after 72-96 hr by two-fold serial dilution method.
Another assay concerns Cryptococcus neoformans. Briefly: Antimicrobial activity against Cryptococcus neoformans assessed as growth inhibition after 72-96 hr by two-fold serial dilution method.
The next assay deals with Aspergillus flavus. Kind of assay: Antimicrobial activity against Aspergillus flavus assessed as growth inhibition after 72-96 hr by two-fold serial dilution method.
The next assay has as its system Candida albicans. Kind of assay: Antimicrobial activity against Candida albicans assessed as growth inhibition by two-fold serial dilution method.
In the next assay the test system is Escherichia coli. Briefly: Antimicrobial activity against Escherichia coli MTCC 443 assessed as growth inhibition after 24 hr by two-fold serial dilution method. The settings on record: MTCC 443, 24 h.
The test system of a further assay is Pseudomonas aeruginosa. Briefly: Antimicrobial activity against Pseudomonas aeruginosa MTCC 741 assessed as growth inhibition after 24 hr by two-fold serial dilution method. Conditions: MTCC 741, 24 h.

≈ marks a conversion by molar mass, not a printed value. Calls of active or inactive are those of the source. The rule behind the calls is not given here.

As for `COc1ccc(C2C/C(=N\Nc3nc4ccccc4s3)C(C)C(c3ccc(OC)cc3)N2)cc1` (stereo not drawn), the minimum inhibitory concentration (MIC) with Bacillus subtilis stood at 200 mg/L (≈ 423 µM); in the assay on Aspergillus niger, 200 mg/L (≈ 423 µM); with Klebsiella pneumoniae it was 50 mg/L (≈ 106 µM); in the assay with Staphylococcus aureus (MTCC 96, 24 h), 100 mg/L (≈ 212 µM); in the assay on Aspergillus flavus it was 100 mg/L (≈ 212 µM); in the assay on Candida albicans it was 100 mg/L (≈ 212 µM). Further, the MIC in the assay on Escherichia coli is 100 mg/L (≈ 212 µM). Moreover, the MIC entry in the assay on Fusarium oxysporum and in the assay on Cryptococcus neoformans was “inactive” each time.
Turning to `CC1/C(=N/Nc2nc3ccccc3s2)CC(c2ccccc2Cl)NC1c1ccccc1Cl` (stereo not drawn), the minimum inhibitory concentration (MIC) in the assay on Bacillus subtilis was found to be 100 mg/L (≈ 208 µM); with Pseudomonas aeruginosa, 100 mg/L (≈ 208 µM); with Aspergillus niger it was 50 mg/L (≈ 104 µM); in the assay with Klebsiella pneumoniae, 100 mg/L (≈ 208 µM); with Fusarium oxysporum, 100 mg/L (≈ 208 µM); with Cryptococcus neoformans it was 100 mg/L (≈ 208 µM). In addition, the MIC in the assay with Aspergillus flavus, with Candida albicans and in the assay with Escherichia coli was 200 mg/L (≈ 415 µM) each time. For the same molecule, the MIC result in the assay with Staphylococcus aureus was “inactive”.
On to `CC1/C(=N/Nc2nc3ccccc3s2)CC(c2ccc(F)cc2)NC1c1ccc(F)cc1` (stereo not drawn), for which the MIC is 100 mg/L (≈ 223 µM) with Bacillus subtilis; 200 mg/L (≈ 446 µM) in the assay with Pseudomonas aeruginosa; 100 mg/L (≈ 223 µM) in the assay with Aspergillus niger; 25 mg/L (≈ 55.7 µM) in the assay with Klebsiella pneumoniae; 100 mg/L (≈ 223 µM) in the assay with Fusarium oxysporum; 200 mg/L (≈ 446 µM) in the assay on Cryptococcus neoformans. Moreover, the minimal inhibitory concentration (MIC) with Aspergillus flavus and in the assay with Candida albicans was 100 mg/L (≈ 223 µM) throughout. Besides, in the assay on Staphylococcus aureus, the MIC result is “inactive”.
As for `CCC1/C(=N/Nc2nc3ccccc3s2)CC(c2ccccc2)NC1c1ccccc1` (stereo not drawn), the MIC was found to be 200 mg/L (≈ 469 µM) in the assay with Bacillus subtilis; 100 mg/L (≈ 234 µM) with Pseudomonas aeruginosa; 50 mg/L (≈ 117 µM) with Klebsiella pneumoniae; 100 mg/L (≈ 234 µM) with Fusarium oxysporum; 200 mg/L (≈ 469 µM) in the assay with Cryptococcus neoformans; 100 mg/L (≈ 234 µM) with Aspergillus flavus. Moreover, the MIC with Candida albicans came out at 200 mg/L (≈ 469 µM). Moreover, the MIC result in the assay with Staphylococcus aureus was “inactive”.
On to `CN[C@@H]1[C@H](O[C@H]2[C@H](O[C@H]3[C@H](O)[C@@H](O)[C@H](N=C(N)N)[C@@H](O)[C@@H]3N=C(N)N)O[C@@H](C)[C@]2(O)C=O)O[C@@H](CO)[C@H](O)[C@H]1O` [STREPTOMYCIN], for which the minimum inhibitory concentration (MIC) in the assay on Bacillus subtilis stood at 12.5 mg/L (≈ 21.5 µM); with Pseudomonas aeruginosa, 50 mg/L (≈ 86 µM); in the assay on Klebsiella pneumoniae, 20 mg/L (≈ 34.4 µM); in the assay with Staphylococcus aureus (MTCC 96, 24 h) it was 50 mg/L (≈ 86 µM); in the assay on Escherichia coli, 50 mg/L (≈ 86 µM).
Turning to `CC1/C(=N/Nc2nc3ccccc3s2)CC(c2ccccc2)NC1c1ccccc1` (stereo not drawn), the minimal inhibitory concentration (MIC) with Bacillus subtilis was 100 mg/L (≈ 242 µM); in the assay on Pseudomonas aeruginosa it was 200 mg/L (≈ 485 µM); in the assay on Aspergillus niger, 100 mg/L (≈ 242 µM); in the assay with Klebsiella pneumoniae, 100 mg/L (≈ 242 µM); with Staphylococcus aureus (MTCC 96, 24 h) it was 200 mg/L (≈ 485 µM); in the assay on Fusarium oxysporum, 200 mg/L (≈ 485 µM). Moreover, the minimal inhibitory concentration (MIC) in the assay with Cryptococcus neoformans was determined as 200 mg/L (≈ 485 µM); in the assay on Candida albicans, 100 mg/L (≈ 242 µM); in the assay on Escherichia coli, 25 mg/L (≈ 60.6 µM).
On to `C[C@@H]1[C@H](O)[C@@H](C)/C=C/C=C/C=C/C=C/C=C/C=C/C=C/[C@H](O[C@@H]2O[C@H](C)[C@@H](O)[C@H](N)[C@@H]2O)C[C@@H]2O[C@](O)(C[C@@H](O)C[C@@H](O)[C@H](O)CC[C@@H](O)C[C@@H](O)CC(=O)O[C@H]1C)C[C@H](O)[C@H]2C(=O)O` [AMPHOTERICIN B], for which the MIC was 50 mg/L (≈ 54.1 µM) in the assay with Aspergillus niger; 25 mg/L (≈ 27.1 µM) in the assay with Fusarium oxysporum; 25 mg/L (≈ 27.1 µM) in the assay with Cryptococcus neoformans; 50 mg/L (≈ 54.1 µM) in the assay on Aspergillus flavus; 25 mg/L (≈ 27.1 µM) in the assay with Candida albicans.
Regarding `c1ccc(C2CC(=NNc3nc4ccccc4s3)CC(c3ccccc3)N2)cc1` (stereo not drawn), the MIC in the assay on Bacillus subtilis worked out at 100 mg/L (≈ 251 µM); in the assay with Pseudomonas aeruginosa, 200 mg/L (≈ 502 µM); in the assay on Aspergillus niger it was 200 mg/L (≈ 502 µM); with Klebsiella pneumoniae, 200 mg/L (≈ 502 µM); in the assay on Fusarium oxysporum it was 200 mg/L (≈ 502 µM); in the assay with Aspergillus flavus, 200 mg/L (≈ 502 µM). The figures for the minimal inhibitory concentration (MIC) in the assay on Candida albicans and in the assay on Escherichia coli were 100 mg/L (≈ 251 µM) and 200 mg/L (≈ 502 µM), respectively. The MIC entry with Staphylococcus aureus is “inactive”.
Regarding `CC1/C(=N/Nc2nc3ccccc3s2)CC(c2ccc(Br)cc2)NC1c1ccc(Br)cc1` (stereo not drawn), the MIC in the assay with Bacillus subtilis came to 200 mg/L (≈ 351 µM); in the assay on Pseudomonas aeruginosa it was 200 mg/L (≈ 351 µM); in the assay with Aspergillus niger, 200 mg/L (≈ 351 µM); with Klebsiella pneumoniae, 100 mg/L (≈ 175 µM); in the assay with Fusarium oxysporum, 50 mg/L (≈ 87.7 µM); with Cryptococcus neoformans, 100 mg/L (≈ 175 µM). The minimal inhibitory concentration (MIC) in the assay with Aspergillus flavus, in the assay on Candida albicans and in the assay with Escherichia coli was 200 mg/L (≈ 351 µM) each time. Also, the MIC entry with Staphylococcus aureus was “inactive”.
As for `CC1/C(=N/Nc2nc3ccccc3s2)CC(c2ccc(Cl)cc2)NC1c1ccc(Cl)cc1` (stereo not drawn), the MIC in the assay with Bacillus subtilis was determined as 50 mg/L (≈ 104 µM); with Pseudomonas aeruginosa, 100 mg/L (≈ 208 µM); in the assay with Aspergillus niger, 100 mg/L (≈ 208 µM); in the assay on Klebsiella pneumoniae, 50 mg/L (≈ 104 µM); in the assay on Fusarium oxysporum it was 200 mg/L (≈ 415 µM); with Cryptococcus neoformans, 200 mg/L (≈ 415 µM). In addition, the minimal inhibitory concentration (MIC) stood at 50 mg/L (≈ 104 µM) with Aspergillus flavus and 25 mg/L (≈ 51.9 µM) with Escherichia coli. In addition, the MIC result in the assay on Staphylococcus aureus was “inactive”.
